Test results reported in patent US8258295B2, “Triazine derivatives, compositions containing such derivatives, and methods of treatment of cancer and autoimmune diseases using such derivatives” (Prometic Biosciences Inc., priority 2007, dated 2012).
pIC50: −log10 of the molar value. Where two headings read alike, the source gives them in different places.

What was measured:
[1] = test system: PC-3 human prostate carcinoma cell; assay: MTT cytotoxicity on PC-3; format: cell-based
Experimental: (§1) This assay was performed to determine the effect of compounds of the present invention on cell cytotoxicity. Cells were incubated in presence or absence of compounds in their respective conditioned media. After 24 hr or 72 hr incubation, 50 μl of 3-(4,5-dimethyl-2-thiazyl)-2,5-diphenyl-2H-tetrazolium bromide (MTT; 2 mg/ml) was added and further incubated for 4 hr. The supernatant was discarded and 100 μl of dimethylsulfoxide (DMSO) was added. Absorbance was read at 570 nm with a TecanSunrise ELISA plate reader. The control group consisted of cells without compounds and is referred to as 100% of viable cells. IC50 was determined using Prism software.
(§2) All compounds have weak effect on cell cytotoxicity. The predictive utility of cell based cytotoxicity assays to assess the potential in vivo anticancer activity of compounds with selected cancer cell lines is well established in the art and the use of whole cells, instead of isolated protein receptors or enzymes, provides a more reliable determination of activity. See, for example, Paull et al. (J. Nat'l Cancer Inst. 81:1088-1092, 1989); Monks et al. (J. Nat'l Cancer Inst. 83:757-766, 1991); Bandes et al. (J. Nat'l Cancer Inst. 86:770-775, 1994); and Kamate et al. (Int'l J. Cancer 100:571-579, 2002).

[2] = test system: peripheral blood mononuclear leukocytes (PBML); assay: PBML RNA synthesis ([3H]-uridine); format: cell-based; conditions: Homo sapiens, Leukocyte, 48 hr
Excerpt: (§3) PBML were obtained from the peripheral blood of healthy volunteers. Blood was submitted to gradient centrifugation with Lympholyte-Poly media (Cedarlane, Hornby, Canada). The layer containing the mononuclear leukocytes was collected and the cells washed three times in PBS. Cells were then suspended in RPMI (Gibco, Burlington, Canada) supplemented with 10% FBS (Hyclone, Logan USA). Viability was greater than 99% as determined by trypan blue exclusion.
(§4) PBML were resuspended at 2×10^6 cells/ml. 100 μl of PBML (2×10^5 cells) were incubated in a 96-well microtiter plate for 48 hr in the presence or absence of compound. Cells were quiescent or stimulated with concanavalin A (con A; T-cells) or pokeweed mitogen (PWM; B-cells). After incubation, cells were treated with MTT (cytotoxicity) or pulsed with 1 μCi of [^3H]-thymidine (DNA synthesis), [^3H]-uridine (RNA synthesis), or [^3H]-leucine (protein synthesis) for 6 hr. Plates were harvested on a Tomteck and counted on a Microbeta β-counter.

[3] = test system: peripheral blood mononuclear leukocytes (PBML); assay: PBML DNA synthesis ([3H]-thymidine); format: cell-based; conditions: Homo sapiens, Leukocyte, 48 hr
Excerpt: as §3, §4

[4] = test system: oxazolone-induced delayed-type hypersensitivity (DTH); assay: Oxazolone-induced delayed-type hypersensitivity (DTH) in mice; format: in vivo
Experimental: Compounds were tested for their ability to treat oxazolone-induced delayed-type hypersensitivity (DTH) in mice. […] On day 0, day 1, and day 2, mice were treated by intravenous (IV) or oral (PO) administrations of the vehicle (control) or methotrexate (MTX; positive control/IV) or hydrocortisone (positive control/PO) or the compound at concentration lower than or equal to 50 mg/kg or as specified. Mice were challenged with an application of 50 μl of oxazolone on the surface of the right ear (first challenge, day 3; second challenge, day 10). Ear thickness was measured on day 4 to day 7, and on day 11 to 14. Redness and crust formation was also observed. Mice were sacrificed on day 14. TDTH (CD4) cells play an important role in regulating the intensity of the DTH response. Compounds may exert an inhibitory influence on the DTH response through its inhibition of T-cell activation and DNA, RNA, and/or protein synthesis.

[5] = test system: NHDF (normal human dermal fibroblast); assay: MTT cytotoxicity on NHDF; format: cell-based
Experimental: as §1, §2

TNFα = TNFα (Homo sapiens, UniProt P01375); assay: TNFα-induced apoptosis in WEHI-13VAR cell line; format: cell-based; conditions: for inhibition at 10 µM: 1 × 10^−5 M; for inhibition at 20 µM: 2 × 10^−5 M; for inhibition at 40 µM: 4 × 10^−5 M; for inhibition at 5 µM: 5 × 10^−6 M
Chain of TNFα (P01375 77-233 limits assumed, species assumed): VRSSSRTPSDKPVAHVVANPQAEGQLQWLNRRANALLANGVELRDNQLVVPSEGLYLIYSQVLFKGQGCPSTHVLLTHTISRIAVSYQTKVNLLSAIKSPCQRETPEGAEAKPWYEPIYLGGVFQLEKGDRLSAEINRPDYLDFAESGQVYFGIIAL
Experimental: Effect of compounds on TNFα-induced apoptosis was measured by a standard biological assay using WEHI-13VAR cells. These cells undergo apoptosis when they are incubated in the presence of TNFα and actinomycin D. 2×10^4 WEHI-13VAR cells were incubated in RPMI supplemented with 1% sodium pyruvate and 10% FBS, overnight at 37° C. for cell adherence. The cells were then cultured in the presence of 1 μg/ml of actimomycin D ([…]) and 0.04 nM TNFα with or without compounds at 37° C. After 16 hr to 24 hr, 50 μl of a solution of 2 mg/ml of MIT was added to each well and the plate was then incubated for 4 hr at 37° C. Only viable cells metabolize MTT to form formazan salt, which is detectable by the measurement of absorbance at 570 nm. After the incubation, the plate was inverted to remove medium and dead cells. 150 μDMSO was added to each well to stop the reaction and solubilize the formazan salt. Optical density was read on a Bio-Tek EL 800 UV microplate reader. A decrease in the optical density is direct evidence of cell apoptosis induced by TNFα. Compounds were also compared to the activity of an anti-TNFα neutralizing antibody.

[6] = test system: HUVEC (human umbilical vein endothelial cell); assay: MTT cytotoxicity on HUVEC; format: cell-based
Experimental: as §1, §2

[7] = test system: peripheral blood mononuclear leukocytes (PBML); assay: PBML protein synthesis ([3H]-leucine); format: cell-based; conditions: Homo sapiens, Leukocyte, 48 hr
Excerpt: as §3, §4

[8] = test system: peripheral blood mononuclear leukocytes (PBML); assay: PBML cytotoxicity (MTT); format: cell-based, human; conditions: 48 hr
Excerpt: as §3, §4

PBML cytotoxicity (MTT) = format: cell-based, human; conditions: human, resting PBML
Excerpt: as §3, §4

[9] = test system: P815 murine mastocytoma cell; assay: MTT cytotoxicity on P815; format: cell-based; conditions: Mus musculus
Experimental: as §1, §2

[10] = 24 hr culture, read-out: IC50 of 24-hour culture PC-3
[11] = 72 hr culture, read-out: IC50 of 72-hour culture PC-3
[12] = PWM stimulated PBML, read-out: RNA Synthesis PWM
[13] = resting PBML, read-out: RNA Synthesis Resting
[14] = PWM stimulated PBML, read-out: DNA Synthesis PWM
[15] = con A stimulated PBML, read-out: DNA Synthesis Con A
[16] = resting PBML, read-out: DNA Synthesis Resting
[17] = 24 hr culture, read-out: IC50 of 24-hour culture NHDF
[18] = 72 hr culture, read-out: IC50 of 72-hour culture NHDF
[19] = 24 hr culture, read-out: IC50 of 24-hour culture HUVEC
[20] = 72 hr culture, read-out: IC50 of 72-hour culture HUVEC
[21] = PWM stimulated PBML, read-out: Protein Synthesis PWM
[22] = con A stimulated PBML, read-out: Protein Synthesis Con A
[23] = resting PBML, read-out: Protein Synthesis Resting
[24] = PWM stimulated PBML, read-out: Cytotoxicity PWM
[25] = con A stimulated PBML, read-out: Cytotoxicity Con A
[26] = 24 hr culture, read-out: IC50 of 24-hour culture P815
[27] = 72 hr culture, read-out: IC50 of 72-hour culture P815

For `NCCCCCNc1nc(NCCc2ccc(O)cc2)nc(Nc2ccc(F)cc2)n1` [Compound V], the pIC50 [1, 10] was 4.36, the pIC50 [1, 11] was 4.57 and the pIC50 [2, 12] was 5.35. It also gave a pIC50 ([2]; con A stimulated PBML, read-out: RNA Synthesis Con A) of 5.22, a pIC50 [2, 13] of 5.13 and a pIC50 [3, 14] of 5.21. The pIC50 [3, 15] was 5.10, the pIC50 [3, 16] was less than 5.00 and the “inflammation (ear thickness) after DTH” value ([4]; oral 50 mg/kg, FIG. 15) was “significant reduction of the inflammation”. For the same compound, the pIC50 [5, 17] was 4.10, the pIC50 [5, 18] was 4.34 and the inhibition at 10 µM (TNFα) was 22.2%. For the same compound, the inhibition at 20 µM (TNFα) was 51.9%, the inhibition at 40 µM (TNFα) was 75.9% and the inhibition at 5 µM (TNFα) was 8.2%. The pIC50 [6, 19] was 4.50, the pIC50 [6, 20] was less than 4.00 and the pIC50 [7, 21] was less than 5.00. The pIC50 [7, 22] was less than 5.00, the pIC50 [7, 23] was less than 5.00 and the pIC50 [8, 24] was less than 5.00. For the same compound, the pIC50 [8, 25] was less than 5.00, the IC50 at 48 h (PBML cytotoxicity (MTT)) was greater than 10 µM and the pIC50 [9, 26] was 4.63. The pIC50 [9, 27] was 5.12.
Work on `NCCCCCNc1nc(NCCc2ccc(S(N)(=O)=O)cc2)nc(Nc2cccc(F)c2)n1` [Compound II] yielded a pIC50 [1, 10] of 4.49, a pIC50 [1, 11] of 4.73 and a pIC50 [2, 12] of 5.96. It also gave a pIC50 [2, 13] of 5.24, a pIC50 [3, 14] of 5.77 and a pIC50 [3, 15] of 5.54. For the same compound, the pIC50 [3, 16] was less than 5.00, the “inflammation (ear thickness) after DTH” value ([4]; IV 5 mg/kg, first challenge of oxazolone) was “significant reduction of the inflammation” and the “inflammation (ear thickness) after DTH” value ([4]; IV 5 mg/kg, second challenge of oxazolone) was “significant reduction of the inflammation”. The pIC50 [5, 17] was less than 4.00, the pIC50 [5, 18] was 4.54 and the inhibition at 10 µM (TNFα) was 64.2%. The inhibition at 20 µM (TNFα) was 83.8%, the inhibition at 40 µM (TNFα) was 78.9% and the inhibition at 5 µM (TNFα) was 45.2%. The pIC50 [6, 19] was 4.04, the pIC50 [6, 20] was 4.41 and the pIC50 [7, 21] was 5.24. It also gave a pIC50 [7, 22] of 5.19, a pIC50 [7, 23] of less than 5.00 and a pIC50 [8, 24] of less than 5.00. It also gave a pIC50 [8, 25] of less than 5.00, an IC50 at 48 h (PBML cytotoxicity (MTT)) greater than 10 µM and a pIC50 [9, 26] of 4.18. For the same compound, the pIC50 [9, 27] was 5.80.
In the case of `NCCCCCNc1nc(NCCc2ccc(O)cc2)nc(Nc2cccc(F)c2)n1` [Compound I], the pIC50 [1, 10] was 4.31, the pIC50 [1, 11] was 4.93 and the pIC50 [2, 12] was 5.66. The pIC50 [2, 13] was 5.17, the pIC50 [3, 14] was 5.55 and the pIC50 [3, 15] was 5.43. The pIC50 [3, 16] was less than 5.00, the “inflammation (ear thickness) after DTH” value ([4]; IV 25 mg/kg, first challenge of oxazolone) was “significant reduction of the inflammation” and the “inflammation (ear thickness) after DTH” value ([4]; IV 25 mg/kg, second challenge of oxazolone) was “significant reduction of the inflammation”. For the same compound, the pIC50 [5, 17] was 4.25, the pIC50 [5, 18] was 4.79 and the inhibition at 10 µM (TNFα) was 33.1%. It also gave an inhibition at 20 µM (TNFα) of 58.9%, an inhibition at 5 µM (TNFα) of 17.9% and a pIC50 [6, 19] of 4.73. For the same compound, the pIC50 [6, 20] was 5.00, the pIC50 [7, 21] was 5.00 and the pIC50 [7, 22] was 5.36. The pIC50 [7, 23] was less than 5.00, the pIC50 [8, 24] was less than 5.00 and the pIC50 [8, 25] was less than 5.00. The IC50 at 48 h (PBML cytotoxicity (MTT)) was greater than 10 µM, the pIC50 [9, 26] was 4.47 and the pIC50 [9, 27] was 5.40.
